The NIST ThermoML archive (doi:10.1021/je0503305)
“And” between values parts separate entries of the source, which are not always exact repeats. Equal entries are not always repeated. ± gives the expanded uncertainty stated by the source.

Key:
[1] = Crystal; for vapor or sublimation pressure: Calculated from knudsen effusion weight loss; for Normal melting temperature: DTA
[2] = Molar enthalpy of transition or fusion; conditions: Crystal; DSC

Question: Which “vapor or sublimation pressure” value ([1]; 363.16 K) does the source give for `COC(=O)c1ccc(C(=O)O)cc1` [1,4-benzenedicarboxylic acid, monomethyl ester] here?
Answer: The value was 0.000139 ± 2.1e-05 kPa and 0.00014 ± 2.1e-05 kPa.

Question: And the “vapor or sublimation pressure” value ([1]; 365.15 K)?
Answer: The value was 0.000169 ± 2.1e-05 kPa and 0.000171 ± 2.1e-05 kPa and 0.000167 ± 2.1e-05 kPa.

Question: And the “vapor or sublimation pressure” value ([1]; 367.19 K)?
Answer: Its value is 0.000212 ± 2.1e-05 kPa and 0.000209 ± 2.1e-05 kPa.

Question: What about the “vapor or sublimation pressure” value ([1]; 370.18 K) of the same molecule?
Answer: Its value is 0.000289 ± 2.2e-05 kPa and 0.000294 ± 2.3e-05 kPa and 0.000286 ± 2.2e-05 kPa.

Question: And the “vapor or sublimation pressure” value ([1]; 372.17 K)?
Answer: Its value is 0.000361 ± 2.4e-05 kPa and 0.000363 ± 2.4e-05 kPa and 0.000354 ± 2.4e-05 kPa.

Question: And the “vapor or sublimation pressure” value ([1]; 374.2 K)?
Answer: The value was 0.000452 ± 2.6e-05 kPa and 0.000449 ± 2.6e-05 kPa and 0.000439 ± 2.5e-05 kPa.

Question: And the “vapor or sublimation pressure” value ([1]; 377.37 K)?
Answer: The value was 0.00063 ± 3e-05 kPa and 0.000621 ± 3e-05 kPa and 0.00062 ± 3e-05 kPa.

Question: And the “vapor or sublimation pressure” value ([1]; 379.26 K)?
Answer: Its value is 0.000768 ± 3.4e-05 kPa and 0.000743 ± 3.3e-05 kPa and 0.000739 ± 3.3e-05 kPa.

Question: And the “vapor or sublimation pressure” value ([1]; 381.51 K)?
Answer: Its value is 0.00094 ± 3.9e-05 kPa and 0.000931 ± 3.9e-05 kPa and 0.000926 ± 3.8e-05 kPa.

Question: What about the Normal melting temperature [1] of the same molecule?
Answer: Its Normal melting temperature is 219.39 ± 0.39 °C.

Question: What about the “Molar enthalpy of transition or fusion” value [2] of the same molecule?
Answer: Its value is 9.01 ± 0.215 kcal/mol.

Question: With `COC(=O)c1cccc(C(=O)O)c1` [1,3-benzenedicarboxylic acid, monomethyl ester] as the molecule, how does the “vapor or sublimation pressure” value ([1]; 359.26 K) read?
Answer: The value was 0.000134 ± 2.1e-05 kPa and 0.000136 ± 2.1e-05 kPa.

Question: And the “vapor or sublimation pressure” value ([1]; 361.24 K)?
Answer: Its value is 0.000172 ± 2.1e-05 kPa and 0.000169 ± 2.1e-05 kPa.

Question: And the “vapor or sublimation pressure” value ([1]; 363.28 K)?
Answer: The value was 0.000211 ± 2.1e-05 kPa and 0.00021 ± 2.1e-05 kPa and 0.000202 ± 2.1e-05 kPa.

Question: And the “vapor or sublimation pressure” value ([1]; 365.26 K)?
Answer: The value was 0.000256 ± 2.2e-05 kPa and 0.000252 ± 2.2e-05 kPa and 0.000264 ± 2.2e-05 kPa.

Question: And the “vapor or sublimation pressure” value ([1]; 367.13 K)?
Answer: Its value is 0.000313 ± 2.3e-05 kPa and 0.000311 ± 2.3e-05 kPa.

Question: What about the “vapor or sublimation pressure” value ([1]; 369.28 K) of the same molecule?
Answer: Its value is 0.000397 ± 2.4e-05 kPa and 0.000399 ± 2.4e-05 kPa and 0.000382 ± 2.4e-05 kPa.

Question: What about the “vapor or sublimation pressure” value ([1]; 371.24 K) of the same molecule?
Answer: Its value is 0.000499 ± 2.7e-05 kPa and 0.000487 ± 2.6e-05 kPa and 0.000474 ± 2.6e-05 kPa.

Question: And the “vapor or sublimation pressure” value ([1]; 373.12 K)?
Answer: Its value is 0.000588 ± 2.9e-05 kPa and 0.000586 ± 2.9e-05 kPa and 0.000569 ± 2.8e-05 kPa.

Question: What about the “vapor or sublimation pressure” value ([1]; 375.27 K) of the same molecule?
Answer: The value was 0.000773 ± 3.4e-05 kPa and 0.000759 ± 3.3e-05 kPa and 0.000741 ± 3.3e-05 kPa.

Question: What about the “vapor or sublimation pressure” value ([1]; 377.24 K) of the same molecule?
Answer: Its value is 0.000953 ± 3.9e-05 kPa and 0.000928 ± 3.8e-05 kPa and 0.000917 ± 3.8e-05 kPa.

Question: What about the “vapor or sublimation pressure” value ([1]; 379.12 K) of the same molecule?
Answer: Its value is 0.001122 ± 8.9e-05 kPa and 0.001111 ± 8.8e-05 kPa.

Question: And the Normal melting temperature [1]?
Answer: Its Normal melting temperature is 193.53 ± 0.39 °C.

Question: What about the “Molar enthalpy of transition or fusion” value [2] of the same molecule?
Answer: Its value is 8.72 ± 0.189 kcal/mol.

Question: With `COC(=O)c1ccccc1C(=O)O` [phthalic acid, monomethyl ester] as the molecule, how does the “vapor or sublimation pressure” value ([1]; 335.28 K) read?
Answer: The value was 0.000112 ± 2e-05 kPa and 0.000118 ± 2e-05 kPa and 0.000115 ± 2e-05 kPa.

Question: And the “vapor or sublimation pressure” value ([1]; 337.26 K)?
Answer: The value was 0.000154 ± 2.1e-05 kPa and 0.000148 ± 2.1e-05 kPa and 0.000149 ± 2.1e-05 kPa.

Question: What about the “vapor or sublimation pressure” value ([1]; 339.2 K) of the same molecule?
Answer: Its value is 0.000184 ± 2.1e-05 kPa and 0.000187 ± 2.1e-05 kPa and 0.00019 ± 2.1e-05 kPa.

Question: What about the “vapor or sublimation pressure” value ([1]; 341.24 K) of the same molecule?
Answer: The value was 0.000239 ± 2.2e-05 kPa and 0.000243 ± 2.2e-05 kPa.

Question: And the “vapor or sublimation pressure” value ([1]; 343.11 K)?
Answer: Its value is 0.000298 ± 2.3e-05 kPa and 0.000306 ± 2.3e-05 kPa and 0.000301 ± 2.3e-05 kPa.

Question: And the “vapor or sublimation pressure” value ([1]; 345.27 K)?
Answer: Its value is 0.000388 ± 2.4e-05 kPa and 0.000386 ± 2.4e-05 kPa.

Question: What about the “vapor or sublimation pressure” value ([1]; 347.24 K) of the same molecule?
Answer: The value was 0.000471 ± 2.6e-05 kPa and 0.00048 ± 2.6e-05 kPa and 0.000468 ± 2.6e-05 kPa.

Question: What about the “vapor or sublimation pressure” value ([1]; 349.12 K) of the same molecule?
Answer: Its value is 0.000579 ± 2.9e-05 kPa and 0.000575 ± 2.9e-05 kPa and 0.000593 ± 2.9e-05 kPa.

Question: What about the “vapor or sublimation pressure” value ([1]; 351.06 K) of the same molecule?
Answer: The value was 0.000743 ± 3.3e-05 kPa and 0.000733 ± 3.3e-05 kPa and 0.000751 ± 3.3e-05 kPa.

Question: What about the “vapor or sublimation pressure” value ([1]; 353.23 K) of the same molecule?
Answer: The value was 0.000981 ± 4e-05 kPa and 0.000964 ± 4e-05 kPa and 0.000948 ± 3.9e-05 kPa.

Question: And the “vapor or sublimation pressure” value ([1]; 355.28 K)?
Answer: Its value is 0.001233 ± 0.0001 kPa and 0.001242 ± 0.0001 kPa.

Question: And the Normal melting temperature [1]?
Answer: Its Normal melting temperature is 84.4 ± 0.48 °C.

Question: What about the “Molar enthalpy of transition or fusion” value [2] of the same molecule?
Answer: Its value is 5.17 ± 0.263 kcal/mol.
